By IC50 is commonly meant the concentration needed to halve the response being measured.

Among the data in patent US11834453B2, “Substituted pyrimido[5,4-d]pyrimidines as HER2 inhibitors” (Array BioPharma Inc., priority 2020, dated 2023) are IC50 values, retold here.

Sequence of EGFR wild type (EGFR WT) (P00533 25-1210): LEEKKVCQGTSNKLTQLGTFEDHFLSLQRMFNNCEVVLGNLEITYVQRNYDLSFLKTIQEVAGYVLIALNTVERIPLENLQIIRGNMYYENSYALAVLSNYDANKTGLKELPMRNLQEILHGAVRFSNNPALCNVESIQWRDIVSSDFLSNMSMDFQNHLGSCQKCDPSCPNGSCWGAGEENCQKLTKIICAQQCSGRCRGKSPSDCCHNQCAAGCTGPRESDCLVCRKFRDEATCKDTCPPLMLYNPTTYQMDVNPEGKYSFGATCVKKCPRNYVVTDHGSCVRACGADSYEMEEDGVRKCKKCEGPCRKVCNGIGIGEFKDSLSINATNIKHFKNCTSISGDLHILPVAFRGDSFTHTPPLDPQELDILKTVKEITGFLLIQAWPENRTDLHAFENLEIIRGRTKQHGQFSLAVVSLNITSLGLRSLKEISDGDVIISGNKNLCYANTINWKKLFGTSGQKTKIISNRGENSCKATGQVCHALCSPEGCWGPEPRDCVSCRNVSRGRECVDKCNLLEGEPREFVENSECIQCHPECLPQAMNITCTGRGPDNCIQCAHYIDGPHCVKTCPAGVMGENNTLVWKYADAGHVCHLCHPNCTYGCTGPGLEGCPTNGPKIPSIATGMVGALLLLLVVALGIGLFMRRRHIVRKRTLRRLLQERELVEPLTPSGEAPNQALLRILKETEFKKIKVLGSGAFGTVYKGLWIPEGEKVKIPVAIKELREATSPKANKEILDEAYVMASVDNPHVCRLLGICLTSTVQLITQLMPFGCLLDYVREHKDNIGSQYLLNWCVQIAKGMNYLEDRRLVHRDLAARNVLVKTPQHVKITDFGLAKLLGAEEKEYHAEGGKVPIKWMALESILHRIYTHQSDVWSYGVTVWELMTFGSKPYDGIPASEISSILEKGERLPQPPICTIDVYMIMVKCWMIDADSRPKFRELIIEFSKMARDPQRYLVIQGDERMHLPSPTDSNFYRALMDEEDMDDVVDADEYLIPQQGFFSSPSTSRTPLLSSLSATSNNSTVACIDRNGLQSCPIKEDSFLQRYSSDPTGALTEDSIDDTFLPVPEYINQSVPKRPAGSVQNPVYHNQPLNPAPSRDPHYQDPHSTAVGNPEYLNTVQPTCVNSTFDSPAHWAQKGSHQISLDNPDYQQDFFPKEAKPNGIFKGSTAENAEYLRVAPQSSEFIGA

In the first assay the target is ErbB2 insYVMA (HER2-YVMA, SEQ ID NO: 2) (Homo sapiens, UniProt P04626, INS775YVMA/P1170A). Description: biochemical. Conditions: ErbB2 insYVMA enzyme assay; read-out: Assay 1 IC50.
In the case of `Cc1cc(Nc2ncnc3cnc(N4CCOCC4)nc23)ccc1Oc1ccc2csnc2c1` [Example 243], the IC50 is 40.6 nM.
Turning to `Cc1cc(Nc2ncnc3cnc(N4CC5CCC(C4)O5)nc23)ccc1Oc1ccc2c(c1)ncn2C` [Example 256], the IC50 worked out at 49.1 nM.
On the same count and under the same terms, in the case of `Cc1cc(Nc2ncnc3cnc(N4CCOC[C@H]4C)nc23)ccc1Oc1ccc2c(c1)ncn2C` [Example 257] it was 19.8 nM; in that of `CO[C@H]1C[C@@H](Nc2ncc3ncnc(Nc4ccc(Oc5ccc6c(c5)ncn6C)c(C)c4)c3n2)C1` [Example 260], 31.8 nM.
With `Cc1cc(Nc2ncnc3cnc(NC(C)C)nc23)ccc1Oc1ccc2c(c1)ncn2C` [Example 261], the IC50 was determined as 48.8 nM.
Consider `Cc1cc(Nc2ncnc3cnc(N4CC5(CC5)CS4(=O)=O)nc23)ccc1Oc1ccc2c(c1)ncn2C` [Example 264], for which the IC50 turned out to be 35.1 nM.
Turning to `CSc1ncc2ncnc(Nc3ccc(Oc4ccc5c(c4)ncn5C)c(C)c3F)c2n1` [Example 266], the IC50 was determined as 115 nM.
With `Cc1cc(Nc2ncnc3cnc(NC4CC4)nc23)ccc1Oc1ccc2c(c1)ncn2C` [Example 270], the IC50 came to 10.9 nM.
`Cc1cc(Nc2ncnc3cnc(NC4CCCC4)nc23)ccc1Oc1ccc2c(c1)ncn2C` [Example 273]: the IC50 was 95 nM.
With `Cc1cc(Nc2ncnc3cnc(N[C@H]4CNC[C@H]4F)nc23)ccc1Oc1ccc2c(c1)ncn2C` [Example 276], the IC50 turned out to be 8 nM.
Turning to `Cc1cc(Nc2ncnc3cnc(N4CCN[C@H](C)C4)nc23)ccc1Oc1ccc2c(c1)ncn2C` [Example 277], the IC50 was 16 nM.
For the compound `Cc1cc(Nc2ncnc3cnc(N4CCN[C@@H](C)C4)nc23)ccc1Oc1ccc2c(c1)ncn2C` [Example 278], the IC50 was found to be 22 nM.
For `Cc1cc(Nc2ncnc3cnc(O[C@H]4CCN(C)C[C@H]4F)nc23)ccc1Oc1ccc2c(c1)ncn2C` [Example 286], the IC50 was 98.1 nM.
Regarding `Cc1cc(Nc2ncnc3cnc(O[C@H]4CN(C)C[C@H]4F)nc23)ccc1Oc1ccc2c(c1)ncn2C` [Example 287], the IC50 was found to be 42.9 nM.

The target of the next assay is ErbB2 WT (Homo sapiens (Human), UniProt P04626). The assay can be described thus: ErbB enzyme assay (CisBio HTRF KinEASE-TK), Assay 2. Type of assay: biochemical.
Sequence of ErbB2 WT (P04626 23-1255): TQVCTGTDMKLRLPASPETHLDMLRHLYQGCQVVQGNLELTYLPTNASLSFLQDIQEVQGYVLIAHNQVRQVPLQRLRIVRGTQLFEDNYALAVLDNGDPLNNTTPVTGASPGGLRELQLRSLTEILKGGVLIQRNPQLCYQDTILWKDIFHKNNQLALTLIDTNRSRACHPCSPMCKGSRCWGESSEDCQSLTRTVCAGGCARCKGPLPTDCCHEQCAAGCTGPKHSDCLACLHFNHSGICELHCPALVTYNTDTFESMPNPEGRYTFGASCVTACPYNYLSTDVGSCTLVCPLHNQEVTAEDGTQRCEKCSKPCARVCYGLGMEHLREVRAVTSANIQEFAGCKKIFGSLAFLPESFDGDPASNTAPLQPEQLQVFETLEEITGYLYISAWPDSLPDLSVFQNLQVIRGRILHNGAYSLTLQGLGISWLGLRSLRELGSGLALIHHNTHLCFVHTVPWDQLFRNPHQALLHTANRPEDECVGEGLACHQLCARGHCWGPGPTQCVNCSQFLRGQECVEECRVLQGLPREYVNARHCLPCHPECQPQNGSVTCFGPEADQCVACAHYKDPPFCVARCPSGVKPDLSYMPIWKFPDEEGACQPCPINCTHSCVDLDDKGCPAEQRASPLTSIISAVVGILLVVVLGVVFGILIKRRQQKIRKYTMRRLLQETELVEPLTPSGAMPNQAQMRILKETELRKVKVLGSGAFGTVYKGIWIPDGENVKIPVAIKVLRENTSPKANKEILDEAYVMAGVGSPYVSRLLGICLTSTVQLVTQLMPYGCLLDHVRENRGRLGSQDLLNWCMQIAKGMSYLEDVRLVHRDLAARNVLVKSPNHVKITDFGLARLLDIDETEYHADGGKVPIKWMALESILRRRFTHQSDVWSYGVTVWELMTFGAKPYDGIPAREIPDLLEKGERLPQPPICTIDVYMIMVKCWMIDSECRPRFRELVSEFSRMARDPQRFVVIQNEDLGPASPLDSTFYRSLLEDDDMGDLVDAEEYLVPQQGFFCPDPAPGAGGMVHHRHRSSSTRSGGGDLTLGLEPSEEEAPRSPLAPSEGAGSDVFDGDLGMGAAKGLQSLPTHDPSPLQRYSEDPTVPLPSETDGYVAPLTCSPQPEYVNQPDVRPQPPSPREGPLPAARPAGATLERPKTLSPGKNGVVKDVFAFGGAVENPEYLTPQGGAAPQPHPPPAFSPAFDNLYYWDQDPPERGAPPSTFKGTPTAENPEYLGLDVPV
Settings: not given
An outline of the steps:
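ErbB2 phosphorylates 250 nM biotin-TK substrate at 1 mM ATP in 25 mM HEPES pH 7.4, 10 mM MgCl2, 0.01% Triton X-100 and 2% DMSO, for 30 min at 22 °C. Product is detected by HTRF with Sa-XL665 and TK-Ab-Cryptate. Percent of control is set by DMSO-only wells and pre-quenched wells.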
`Cc1cc(Nc2ncnc3cnc(N4CCOCC4)nc23)ccc1Oc1ccc2csnc2c1` [Example 243] had an IC50 of 264 nM.
For `Cc1cc(Nc2ncnc3cnc(N4CC5CCC(C4)O5)nc23)ccc1Oc1ccc2c(c1)ncn2C` [Example 256], the IC50 came out at 71.7 nM.
Consider `Cc1cc(Nc2ncnc3cnc(N4CCOC[C@H]4C)nc23)ccc1Oc1ccc2c(c1)ncn2C` [Example 257], for which the IC50 is 8.2 nM.
As for `CO[C@H]1C[C@@H](Nc2ncc3ncnc(Nc4ccc(Oc5ccc6c(c5)ncn6C)c(C)c4)c3n2)C1` [Example 260], the IC50 is 42 nM.
For the compound `Cc1cc(Nc2ncnc3cnc(NC(C)C)nc23)ccc1Oc1ccc2c(c1)ncn2C` [Example 261], half-maximal inhibition (IC50) required 86.1 nM.
`Cc1cc(Nc2ncnc3cnc(N4CC5(CC5)CS4(=O)=O)nc23)ccc1Oc1ccc2c(c1)ncn2C` [Example 264] displayed an IC50 of 42.4 nM.
With `CSc1ncc2ncnc(Nc3ccc(Oc4ccc5c(c4)ncn5C)c(C)c3F)c2n1` [Example 266], half-maximal inhibition (IC50) was put at 796 nM.
Take `Cc1cc(Nc2ncnc3cnc(NC4CC4)nc23)ccc1Oc1ccc2c(c1)ncn2C` [Example 270]: half-maximal inhibition (IC50) required 22.2 nM.
`Cc1cc(Nc2ncnc3cnc(NC4CCCC4)nc23)ccc1Oc1ccc2c(c1)ncn2C` [Example 273] yielded an IC50 of 202 nM.
For `Cc1cc(Nc2ncnc3cnc(N[C@H]4CNC[C@H]4F)nc23)ccc1Oc1ccc2c(c1)ncn2C` [Example 276], the IC50 is 13.5 nM.
`Cc1cc(Nc2ncnc3cnc(N4CCN[C@H](C)C4)nc23)ccc1Oc1ccc2c(c1)ncn2C` [Example 277] displayed an IC50 of 42.8 nM.
`Cc1cc(Nc2ncnc3cnc(N4CCN[C@@H](C)C4)nc23)ccc1Oc1ccc2c(c1)ncn2C` [Example 278] came in with an IC50 of 42.9 nM.
In turn, `Cc1cc(Nc2ncnc3cnc(O[C@H]4CCN(C)C[C@H]4F)nc23)ccc1Oc1ccc2c(c1)ncn2C` [Example 286] displayed an IC50 of 468 nM.
`Cc1cc(Nc2ncnc3cnc(O[C@H]4CN(C)C[C@H]4F)nc23)ccc1Oc1ccc2c(c1)ncn2C` [Example 287] showed an IC50 of 118 nM.

In a further assay the target is EGFR (Homo sapiens (Human), UniProt P00533). The assay can be described thus: ErbB enzyme assay (CisBio HTRF KinEASE-TK), Assay 3. Type of assay: biochemical.
Sequence of EGFR (P00533 25-1210): as the sequence (P00533 25-1210) above
Settings: not given
An outline of the steps: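 HTRF KinEASE-TK assay: kinase with 250 nM biotinylated TK-substrate and 1 mM ATP in 25 mM HEPES pH 7.4, 10 mM MgCl2, 0.01% Triton X-100, 2% DMSO, 30 min at 22 °C. Quenched with Sa-XL665/TK-Ab-Cryptate, read after 1 h. IC50 from 4-parameter fit of percent of control.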
(In general: Time-resolved FRET reads energy transfer from a long-lived donor to a nearby acceptor.)
As for `Cc1cc(Nc2ncnc3cnc(N4CCOCC4)nc23)ccc1Oc1ccc2csnc2c1` [Example 243], the IC50 stood at 2490 nM.
With `Cc1cc(Nc2ncnc3cnc(N4CC5CCC(C4)O5)nc23)ccc1Oc1ccc2c(c1)ncn2C` [Example 256], the IC50 was no less than 10000 nM.
As to `Cc1cc(Nc2ncnc3cnc(N4CCOC[C@H]4C)nc23)ccc1Oc1ccc2c(c1)ncn2C` [Example 257], the IC50 is 3270 nM.
`CO[C@H]1C[C@@H](Nc2ncc3ncnc(Nc4ccc(Oc5ccc6c(c5)ncn6C)c(C)c4)c3n2)C1` [Example 260] displayed an IC50 of no less than 10000 nM.
Consider `Cc1cc(Nc2ncnc3cnc(NC(C)C)nc23)ccc1Oc1ccc2c(c1)ncn2C` [Example 261], for which the IC50 is no less than 10000 nM.
`Cc1cc(Nc2ncnc3cnc(N4CC5(CC5)CS4(=O)=O)nc23)ccc1Oc1ccc2c(c1)ncn2C` [Example 264] had an IC50 of no less than 10000 nM.
Consider `CSc1ncc2ncnc(Nc3ccc(Oc4ccc5c(c4)ncn5C)c(C)c3F)c2n1` [Example 266], for which the IC50 is no less than 10000 nM.
On the same count and under the same terms, in the case of `Cc1cc(Nc2ncnc3cnc(NC4CC4)nc23)ccc1Oc1ccc2c(c1)ncn2C` [Example 270] it was no less than 10000 nM; in that of `Cc1cc(Nc2ncnc3cnc(NC4CCCC4)nc23)ccc1Oc1ccc2c(c1)ncn2C` [Example 273], no less than 10000 nM.
With `Cc1cc(Nc2ncnc3cnc(N[C@H]4CNC[C@H]4F)nc23)ccc1Oc1ccc2c(c1)ncn2C` [Example 276], the IC50 is 1360 nM.
The compound `Cc1cc(Nc2ncnc3cnc(N4CCN[C@H](C)C4)nc23)ccc1Oc1ccc2c(c1)ncn2C` [Example 277] showed an IC50 of no less than 10000 nM.
In turn, `Cc1cc(Nc2ncnc3cnc(N4CCN[C@@H](C)C4)nc23)ccc1Oc1ccc2c(c1)ncn2C` [Example 278] yielded an IC50 of 9550 nM.
With `Cc1cc(Nc2ncnc3cnc(O[C@H]4CCN(C)C[C@H]4F)nc23)ccc1Oc1ccc2c(c1)ncn2C` [Example 286], the IC50 was no less than 10000 nM.
`Cc1cc(Nc2ncnc3cnc(O[C@H]4CN(C)C[C@H]4F)nc23)ccc1Oc1ccc2c(c1)ncn2C` [Example 287] displayed an IC50 of no less than 10000 nM.

The target of another assay is ErbB2 with Exon 20 YVMA insertion (HER2-YVMA) (Homo sapiens (Human), UniProt P04626, INS775YVMA). Description: Cellular phosphorylation assay, constitutive ErbB2 phosphorylation (Y1196) in engineered NIH 3T3 cells, Assay 4. It is filed as cell-based.
Sequence of ErbB2 with Exon 20 YVMA insertion (HER2-YVMA) (P04626 other isoform, or with tags, fused parts or gaps ins YVMA behind 775): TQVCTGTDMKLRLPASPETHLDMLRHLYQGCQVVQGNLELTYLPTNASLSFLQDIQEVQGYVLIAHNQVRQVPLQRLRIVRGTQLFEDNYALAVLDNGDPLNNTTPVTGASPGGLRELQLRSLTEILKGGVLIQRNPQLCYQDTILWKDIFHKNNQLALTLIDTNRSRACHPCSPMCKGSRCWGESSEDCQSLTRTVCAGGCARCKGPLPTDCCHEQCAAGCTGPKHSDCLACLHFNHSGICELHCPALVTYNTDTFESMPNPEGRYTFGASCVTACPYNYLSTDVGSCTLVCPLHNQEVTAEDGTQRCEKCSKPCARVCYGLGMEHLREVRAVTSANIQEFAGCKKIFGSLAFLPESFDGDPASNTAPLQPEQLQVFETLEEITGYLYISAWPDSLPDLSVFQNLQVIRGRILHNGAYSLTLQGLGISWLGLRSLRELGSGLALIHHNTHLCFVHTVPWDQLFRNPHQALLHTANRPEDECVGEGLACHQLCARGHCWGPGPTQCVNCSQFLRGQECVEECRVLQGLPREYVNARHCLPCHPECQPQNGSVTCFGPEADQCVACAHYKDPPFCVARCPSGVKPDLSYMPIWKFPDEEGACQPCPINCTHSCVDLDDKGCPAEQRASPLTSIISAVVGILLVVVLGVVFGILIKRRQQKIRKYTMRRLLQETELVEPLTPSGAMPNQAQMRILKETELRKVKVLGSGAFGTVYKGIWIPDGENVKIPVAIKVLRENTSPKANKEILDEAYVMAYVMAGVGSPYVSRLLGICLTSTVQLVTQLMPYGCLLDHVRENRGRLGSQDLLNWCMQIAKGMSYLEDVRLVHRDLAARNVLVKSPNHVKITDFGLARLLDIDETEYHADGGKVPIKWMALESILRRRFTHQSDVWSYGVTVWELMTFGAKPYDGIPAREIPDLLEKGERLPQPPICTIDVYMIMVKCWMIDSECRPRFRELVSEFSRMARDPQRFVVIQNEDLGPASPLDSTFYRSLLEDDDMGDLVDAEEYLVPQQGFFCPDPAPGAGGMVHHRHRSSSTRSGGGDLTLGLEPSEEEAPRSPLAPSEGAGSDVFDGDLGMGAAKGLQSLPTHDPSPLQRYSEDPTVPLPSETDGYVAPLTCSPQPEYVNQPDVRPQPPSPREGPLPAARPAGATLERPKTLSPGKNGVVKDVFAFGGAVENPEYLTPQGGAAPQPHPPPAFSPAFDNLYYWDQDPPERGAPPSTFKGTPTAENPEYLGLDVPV
Settings: not given
An outline of the steps: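 Engineered NIH 3T3 cells expressing HER2-YVMA treated with compounds 1 h at 37 °C, then formaldehyde-fixed and methanol-permeabilized. pErbB2 Y1196 detected by in-cell infrared immunofluorescence, normalized to GAPDH. IC50 from the normalized curves.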
Consider `Cc1cc(Nc2ncnc3cnc(N4CCOCC4)nc23)ccc1Oc1ccc2csnc2c1` [Example 243], for which the IC50 came to 173 nM.
Still for that read-out and setting: in the case of `Cc1cc(Nc2ncnc3cnc(N4CC5CCC(C4)O5)nc23)ccc1Oc1ccc2c(c1)ncn2C` [Example 256] it was 12.2 nM.
Still for that read-out and setting: the figure for `Cc1cc(Nc2ncnc3cnc(N4CCOC[C@H]4C)nc23)ccc1Oc1ccc2c(c1)ncn2C` [Example 257] is 9.4 nM; for `CO[C@H]1C[C@@H](Nc2ncc3ncnc(Nc4ccc(Oc5ccc6c(c5)ncn6C)c(C)c4)c3n2)C1` [Example 260] it is 21.5 nM; for `Cc1cc(Nc2ncnc3cnc(NC(C)C)nc23)ccc1Oc1ccc2c(c1)ncn2C` [Example 261] it is 21.9 nM.
Same read-out and setting: in the case of `Cc1cc(Nc2ncnc3cnc(N4CC5(CC5)CS4(=O)=O)nc23)ccc1Oc1ccc2c(c1)ncn2C` [Example 264] it was 6.6 nM.
As to `CSc1ncc2ncnc(Nc3ccc(Oc4ccc5c(c4)ncn5C)c(C)c3F)c2n1` [Example 266], the IC50 worked out at 642 nM.
For the compound `Cc1cc(Nc2ncnc3cnc(NC4CC4)nc23)ccc1Oc1ccc2c(c1)ncn2C` [Example 270], the IC50 turned out to be 3.1 nM.
On the same count and under the same terms, in the case of `Cc1cc(Nc2ncnc3cnc(NC4CCCC4)nc23)ccc1Oc1ccc2c(c1)ncn2C` [Example 273] it was 33.5 nM; in that of `Cc1cc(Nc2ncnc3cnc(N[C@H]4CNC[C@H]4F)nc23)ccc1Oc1ccc2c(c1)ncn2C` [Example 276], 41.5 nM; in that of `Cc1cc(Nc2ncnc3cnc(N4CCN[C@H](C)C4)nc23)ccc1Oc1ccc2c(c1)ncn2C` [Example 277], 28.3 nM.
`Cc1cc(Nc2ncnc3cnc(N4CCN[C@@H](C)C4)nc23)ccc1Oc1ccc2c(c1)ncn2C` [Example 278] had an IC50 of 13.5 nM.
As for `Cc1cc(Nc2ncnc3cnc(O[C@H]4CCN(C)C[C@H]4F)nc23)ccc1Oc1ccc2c(c1)ncn2C` [Example 286], the IC50 came to 81.4 nM.
Still for that read-out and setting: in the case of `Cc1cc(Nc2ncnc3cnc(O[C@H]4CN(C)C[C@H]4F)nc23)ccc1Oc1ccc2c(c1)ncn2C` [Example 287] it was 60.9 nM.

Another assay concerns the target EGFR wild type (EGFR WT) (Homo sapiens (Human), UniProt P00533). Description: Cellular phosphorylation assay, EGF-stimulated EGFR phosphorylation in engineered NIH 3T3 cells, Phospho-EGFR DuoSet IC ELISA, Assay 5. It is filed as cell-based.
Settings: not given
An outline of the steps: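 NIH 3T3 cells expressing EGFR WT (20,000/well, attached overnight) were exposed to serially diluted compound for 1 h at 37 °C, then stimulated with 100 ng/ml rEGF for 10 min. Phospho-EGFR in lysates measured by sandwich ELISA optical density; IC50 from curves.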
For orientation: An ELISA detects its analyte on a solid surface through an enzyme-linked reagent.
Consider `Cc1cc(Nc2ncnc3cnc(N4CCOCC4)nc23)ccc1Oc1ccc2csnc2c1` [Example 243], for which it took 3040 nM to reach half-maximal inhibition (IC50).
The same measure, in the same setting: in the case of `Cc1cc(Nc2ncnc3cnc(N4CC5CCC(C4)O5)nc23)ccc1Oc1ccc2c(c1)ncn2C` [Example 256] it was no less than 5000 nM; in that of `Cc1cc(Nc2ncnc3cnc(N4CCOC[C@H]4C)nc23)ccc1Oc1ccc2c(c1)ncn2C` [Example 257], no less than 5000 nM; in that of `CO[C@H]1C[C@@H](Nc2ncc3ncnc(Nc4ccc(Oc5ccc6c(c5)ncn6C)c(C)c4)c3n2)C1` [Example 260], no less than 5000 nM.
Compound `Cc1cc(Nc2ncnc3cnc(NC(C)C)nc23)ccc1Oc1ccc2c(c1)ncn2C` [Example 261] registered an IC50 of no less than 5000 nM.
The same measure, in the same setting: in the case of `Cc1cc(Nc2ncnc3cnc(N4CC5(CC5)CS4(=O)=O)nc23)ccc1Oc1ccc2c(c1)ncn2C` [Example 264] it was no less than 5000 nM; in that of `CSc1ncc2ncnc(Nc3ccc(Oc4ccc5c(c4)ncn5C)c(C)c3F)c2n1` [Example 266], no less than 5000 nM.
On to `Cc1cc(Nc2ncnc3cnc(NC4CC4)nc23)ccc1Oc1ccc2c(c1)ncn2C` [Example 270], for which the IC50 is no less than 5000 nM.
Still for that read-out and setting: in the case of `Cc1cc(Nc2ncnc3cnc(NC4CCCC4)nc23)ccc1Oc1ccc2c(c1)ncn2C` [Example 273] it was no less than 5000 nM.
On to `Cc1cc(Nc2ncnc3cnc(N[C@H]4CNC[C@H]4F)nc23)ccc1Oc1ccc2c(c1)ncn2C` [Example 276], for which the IC50 was no less than 5000 nM.
In the case of `Cc1cc(Nc2ncnc3cnc(N4CCN[C@H](C)C4)nc23)ccc1Oc1ccc2c(c1)ncn2C` [Example 277], the IC50 is no less than 5000 nM.
The compound `Cc1cc(Nc2ncnc3cnc(N4CCN[C@@H](C)C4)nc23)ccc1Oc1ccc2c(c1)ncn2C` [Example 278] returned an IC50 of no less than 5000 nM.
On the same count and under the same terms, the figure for `Cc1cc(Nc2ncnc3cnc(O[C@H]4CCN(C)C[C@H]4F)nc23)ccc1Oc1ccc2c(c1)ncn2C` [Example 286] is no less than 5000 nM.
On to `Cc1cc(Nc2ncnc3cnc(O[C@H]4CN(C)C[C@H]4F)nc23)ccc1Oc1ccc2c(c1)ncn2C` [Example 287], for which the IC50 was no less than 5000 nM.
